Results: patent US11584801B2, “Anti-5T4 antibodies and antibody-drug conjugates” (Byondis B.V., priority 2015, dated 2023)

B1: 899 chimeric (conjugate)
VH: QSVEESGGRLVTPGTPLTLTCTVSGFSLSSYTMSWVRQACGKGLEYIGIISSSDGTWYANWVKGRFTISKTSTTVDLKMTSLTTEDTATYFCARDGTGNKYYTWDRLDLWGQGTLVTVSS
VL: NIVMTQTPSPVSGAVGGTVTINCQASQSIYNELSWYQQKPGQPPKLLIYYASTLASGVSSRFKGSGSGTQFTLTISGVESVDAATYYCQQGYSSSNVDNVFGGGTEVVVK

Columns and labels:
PA-1 cells = assay: In vitro cytotoxicity in PA-1 cells; type: cell-based, human
MDA-MB-468 cells = assay: In vitro cytotoxicity in MDA-MB-468 cells; type: cell-based, human
[1] = Hydrophobicity by analytical HIC; type: physicochemical
Description: For analytical HIC, 5-10 μl of sample (1 mg/ml) was injected onto a TSKgel Butyl-NPR column (4.6 mm ID×3.5 cm L, Tosoh Bioscience, cat. nr. 14947). The elution method consisted of a linear gradient from 100% Buffer A (25 mM sodium phosphate, 1.5 M ammonium sulphate, pH 6.95) to 100% of Buffer B (25 mM sodium phosphate, pH 6.95, 20% isopropanol) at 0.4 ml/min over 20 minutes. A Waters Acquity H-Class UPLC system equipped with PDA-detector and Empower software was used. Absorbance was measured at 214 nm and the retention time of ADCs was determined.

Molecule	IC50 (PA-1 cells)	IC50 (MDA-MB-468 cells)	MDA-MB-468 Efficacy (MDA-MB-468 cells)	RTDAR0 ([1]; analytical HIC retention time of DAR0 species)	RTDAR2 ([1]; analytical HIC retention time of DAR2 species)	RTDAR2 − RTDAR0 ([1]; increase in HIC retention time upon conjugation of two linker drugs)
Rituximab-vc-seco-DUBA: non-binding control ADC	8.32 nM	32.9 nM	91%			
B1				6.5	10.3	3.8
